The numbers were not newly measured in patent US20220061318A1, “ANTIMICROBIAL PREVENTIVE NETTING” (University of Washington, priority 2020, published 2022), which cites them from elsewhere.

Each structure is given as a SMILES string.

The conditions of this data set: photosensitizer, singlet oxygen generation; riboflavin value depends on the test conditions.

For the molecule `O=C1OC2(c3ccccc31)c1cc(I)c(O)c(I)c1Oc1c2cc(I)c(O)c1I` [erythrosine], the quantum yield entry is listed as “around 0.6”.

For the molecule `CN(C)c1ccc2nc3ccc(=[N+](C)C)cc-3sc2c1` [Methylene blue, methylene blue], the quantum yield is reported as 0.52.
